# Experimental data taken from patent US12565501B2, “Muscarinic acetylcholine M1 receptor antagonists” (Contineum Therapeutics, Inc., priority 2019, dated 2026).
# pIC50: −log10 of the molar value.
# Biological target: T1, human M1 receptor (Homo sapiens, UniProt P11229)
# T1 sequence (P11229 1-460): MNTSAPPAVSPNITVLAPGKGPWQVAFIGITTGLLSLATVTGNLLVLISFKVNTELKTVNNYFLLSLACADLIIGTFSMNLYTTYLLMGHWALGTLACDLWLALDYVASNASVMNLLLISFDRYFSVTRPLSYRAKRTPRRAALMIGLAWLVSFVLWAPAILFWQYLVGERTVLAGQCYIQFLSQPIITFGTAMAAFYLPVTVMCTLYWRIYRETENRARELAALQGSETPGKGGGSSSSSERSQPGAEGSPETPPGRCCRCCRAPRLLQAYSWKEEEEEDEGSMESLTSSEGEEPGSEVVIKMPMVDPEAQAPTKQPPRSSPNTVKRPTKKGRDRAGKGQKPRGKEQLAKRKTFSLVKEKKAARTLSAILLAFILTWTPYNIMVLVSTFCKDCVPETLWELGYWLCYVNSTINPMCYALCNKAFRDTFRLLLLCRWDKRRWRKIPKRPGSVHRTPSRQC
# Assay: In vitro functional assay of muscarinic acetylcholine receptor activity (aequorin calcium flux, reversal of EC80 acetylcholine response)
# Format: cell-based
# Settings: CHO-K1 cells stably expressing human M1 receptor with aequorin; acetylcholine at EC80; calcium flux (luminescence); read-out: M1 IC50
# How it was run: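 Antagonist mode: compound (final 0.1% DMSO) and coelenterazine-loaded M1/aequorin CHO-K1 cells incubated 30 min in the dark before EC80 acetylcholine addition. Calcium flash integrated as 40 s luminescence AUC; IC50 derived from dose-response curves.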
row,Compound,pIC50
1,"COc1cc(C(F)(F)/C=C/C(=O)N2CC3CCC(C2)N3c2ccc(C#N)cn2)ccn1 [Example 139, 6-(3-((E)-4,4-difluoro-4-(2-methoxypyridin-4-yl)but-2-enoyl)-3,8-diazabicyclo[3.2.1]octan-8-yl)nicotinonitrile]",> 8.00
2,"N#Cc1ccc(N2C3CCC2CN(C(=O)COC2(c4ccc(Br)cc4)CC2)C3)nc1 [Example 208, 6-(3-(2-(1-(4-bromophenyl)cyclopropoxy)acetyl)-3,8-diazabicyclo[3.2.1]octan-8-yl)nicotinonitrile]",6.00 to 7.00
3,"COc1ccc(F)c(C2(NCC(=O)N3CC4CCC(C3)N4c3ccc(C#N)cn3)CCC2)c1 [Example 116, 6-(3-((1-(2-fluoro-5-methoxyphenyl)cyclobutyl)glycyl)-3,8-diazabicyclo[3.2.1]octan-8-yl)nicotinonitrile]",7.00 to 8.00
4,"CC(c1ccc(F)cc1)S(=O)(=O)CCC(=O)N1CC2CCC(C1)N2c1ccc(C#N)cn1 (racemic) [Example 175, 6-(3-(3-((1-(4-fluorophenyl)ethyl)sulfonyl)propanoyl)-3,8-diazabicyclo[3.2.1]octan-8-yl) nicotinonitrile]",< 6.00
5,"N#Cc1ccc(N2C3CCC2CN(C(=O)COC2(c4ccncc4)CC2)C3)nc1 [Example 227, 6-(3-(2-(1-(pyridin-4-yl)cyclopropoxy)acetyl)-3,8-diazabicyclo[3.2.1]octan-8-yl)nicotinonitrile]",6.00 to 7.00
6,"N#Cc1ccc(N2[C@@H]3CC[C@H]2CN(C(=O)CCNC2(c4cccc(F)c4F)CC2)C3)nc1 [Example 32, 6-(3-(3-((1-(2,3-difluorophenyl)cyclopropyl)amino)propanoyl)-3,8-diazabicyclo[3.2.1]octan-8-yl)nicotinonitrile]",7.00 to 8.00
7,"N#Cc1ccc(N2C3CCC2CN(C(=O)COC2(c4cccc5nccnc45)CC2)C3)nc1 [Example 231, 6-(3-(2-(1-(quinoxalin-5-yl)cyclopropoxy)acetyl)-3,8-diazabicyclo[3.2.1]octan-8-yl)nicotinonitrile]",7.00 to 8.00
8,"COc1ccc(F)cc1C1(NCC(=O)N2CC3CCC(C2)N3c2ccc(C#N)cn2)CC1 [Example 76, 6-(3-((1-(5-fluoro-2-methoxyphenyl)cyclopropyl)glycyl)-3,8-diazabicyclo[3.2.1]octan-8-yl)nicotinonitrile]",> 8.00
9,"CC(SCC(=O)N1CC2CCC(C1)N2c1ccc(C#N)cn1)c1ccc(F)cc1 (racemic) [Example 133, 6-(3-(2-((1-(4-fluorophenyl)ethyl)thio)acetyl)-3,8-diazabicyclo[3.2.1]octan-8-yl)nicotinonitrile]",7.00 to 8.00
10,"Cc1ccc(N2[C@@H]3CC[C@H]2CN(C(=O)CCNC2(c4ccc(F)c(F)c4)CC2)C3)nn1 [Example 47, 3-((1-(3,4-difluorophenyl)cyclopropyl)amino)-1-(8-(6-methylpyridazin-3-yl)-3,8-diazabicyclo[3.2.1]octan-3-yl)propan-1-one]",7.00 to 8.00
11,"COc1ccc(C2(OCC(=O)N3CC4CCC(C3)N4c3ccc(C#N)cn3)CCC2)nc1 [Example 256, 6-(3-(2-(1-(5-methoxypyridin-2-yl)cyclobutoxy)acetyl)-3,8-diazabicyclo[3.2.1]octan-8-yl)nicotinonitrile]",5.00 to 6.00
12,"N#Cc1ccc(N2C3CCC2CN(C(=O)COC2(c4ccc(F)c(Br)c4)CC2)C3)nc1 [Example 215, 6-(3-(2-(1-(3-bromo-4-fluorophenyl)cyclopropoxy)acetyl)-3,8-diazabicyclo[3.2.1]octan-8-yl)nicotinonitrile]",7.00 to 8.00
13,"N#Cc1ccc(N2C3CCC2CN(C(=O)COC(c2cccc4ncnn24)C2CC2)C3)nc1 (racemic) [Example 195, 6-(3-(2-([1,2,4]triazolo[1,5-a]pyridin-5-yl(cyclopropyl)methoxy)acetyl)-3,8-diazabicyclo[3.2.1]octan-8-yl)nicotinonitrile]",7.00 to 8.00
14,"N#Cc1ccc(N2C3CCC2CN(C(=O)COC2(c4ccc(Cl)c(Cl)c4)CC2)C3)nc1 [Example 214, 6-(3-(2-(1-(3,4-dichlorophenyl)cyclopropoxy)acetyl)-3,8-diazabicyclo[3.2.1]octan-8-yl)nicotinonitrile]",7.00 to 8.00
15,"COc1ccnc(C2(OCC(=O)N3CC4CCC(C3)N4c3ccc(C#N)cn3)CCC2)c1 [Example 255, 6-(3-(2-(1-(4-methoxypyridin-2-yl)cyclobutoxy)acetyl)-3,8-diazabicyclo[3.2.1]octan-8-yl)nicotinonitrile]",> 8.00
16,"CC(c1ccccc1Br)S(=O)(=O)CCC(=O)N1CC2CCC(C1)N2c1ccc(C#N)cn1 (racemic) [Example 176, 6-(3-(3-((1-(2-bromophenyl)ethyl)sulfonyl)propanoyl)-3,8-diazabicyclo[3.2.1]octan-8-yl) nicotinonitrile]",5.00 to 6.00
17,"N#Cc1ccc(N2C3CCC2CN(C(=O)CCNC(c2ccc(F)c(F)c2)C(F)F)C3)nc1 (racemic) [Example 129, 6-(3-(3-((1-(3,4-difluorophenyl)-2,2-difluoroethyl)amino)propanoyl)-3,8-diazabicyclo[3.2.1]octan-8-yl)nicotinonitrile]",> 8.00
18,"COc1ccncc1C(F)(F)CCC(=O)N1CC2CCC(C1)N2c1ccc(C#N)cn1 [Example 161, 6-(3-(4,4-difluoro-4-(4-methoxypyridin-3-yl)butanoyl)-3,8-diazabicyclo[3.2.1]octan-8-yl)nicotinonitrile]",> 8.00
19,"COc1cccc(C(F)(F)CCC(=O)N2CC3CCC(C2)N3c2ccc(C#N)cn2)n1 [Example 145, 6-(3-(4,4-difluoro-4-(6-methoxypyridin-2-yl)butanoyl)-3,8-diazabicyclo[3.2.1]octan-8-yl)nicotinonitrile]",> 8.00
20,"C[C@H](OCC(=O)N1C[C@H]2CC[C@@H](C1)N2c1ccc(C#N)cn1)c1ccc(F)c(F)c1 [Example 182, 6-(3-(2-((S)-1-(3,4-difluorophenyl)ethoxy)acetyl)-3,8-diazabicyclo[3.2.1]octan-8-yl)nicotinonitrile]",7.00 to 8.00
21,"CCOc1cncc(C2(OCC(=O)N3CC4CCC(C3)N4c3ccc(C#N)cn3)CCC2)c1 [Example 259, 6-(3-(2-(1-(5-ethoxypyridin-3-yl)cyclobutoxy)acetyl)-3,8-diazabicyclo[3.2.1]octan-8-yl)nicotinonitrile]",7.00 to 8.00
22,"COc1cncc(C(F)(F)/C=C/C(=O)N2CC3CCC(C2)N3c2ccc(C#N)cn2)c1 [Example 142, 6-(3-((E)-4,4-difluoro-4-(5-methoxypyridin-3-yl)but-2-enoyl)-3,8-diazabicyclo[3.2.1]octan-8-yl)nicotinonitrile]",> 8.00
23,"CC(SCCC(=O)N1CC2CCC(C1)N2c1ccc(C#N)cn1)c1ccc(F)cc1 (racemic) [Example 135, 6-((3-((1-(4-fluorophenyl)ethyl)thio)propanoyl)-3,8-diazabicyclo[3.2.1]octan-8-yl)nicotinonitrile]",5.00 to 6.00
24,"N#Cc1ccc(N2C3CCC2CN(C(=O)COC2(c4c(F)cnc(Br)c4F)CCC2)C3)nc1 [Example 270, 6-(3-(2-(1-(2-bromo-3,5-difluoropyridin-4-yl)cyclobutoxy)acetyl)-3,8-diazabicyclo[3.2.1]octan-8-yl)nicotinonitrile]",> 8.00
25,"N#Cc1ccc(N2C3COCC2CN(C(=O)COC2(c4ccc(F)c(F)c4)CC2)C3)nc1 [Example 279, 6-(7-(2-(1-(3,4-difluorophenyl)cyclopropoxy)acetyl)-3-oxa-7,9-diazabicyclo[3.3.1]nonan-9-yl)nicotinonitrile]",5.00 to 6.00
